Article PMC5889877, “Ex Vivo Cardiotoxicity of Antineoplastic Casiopeinas Is Mediated through Energetic Dysfunction and Triggered Mitochondrial-Dependent Apoptosis” (Oxidative Medicine and Cellular Longevity, 2018)
Marks after values point to notes of the source that are not given here.

How the values were obtained:
[1] = system: subcutaneous tumors; conditions: nude mice ref 29; cited from earlier work
[2] = system: cytochrome c; experiment: Mitochondrial cytochrome c content by Western blot; parameters: species or system rat; conditions: heart mitochondria after 30 min perfusion at IC50
Procedure: To measure mitochondrial oxygen consumption, mitochondrial membrane potential, and Ca^2+ uptake, cytochrome c samples were prepared as follows: after perfusion, heart tissue from the left ventricle was minced and homogenized in cold mitochondrial isolation medium (in mM: 125 KCl, 1 EDTA, and 10 HEPES-HCl; pH 7.3). The mitochondrial fraction was obtained by differential centrifugation using the protease Nagarse, as previously described. Mitochondrial oxygen consumption was measured using a Clark-type oxygen electrode. The experiments were carried out in respiration assay medium containing 125 KCl, 10 HEPES-HCl, and 3 KH2PO4 (in mM) with pH 7.3. State 4 respiration was measured in the presence of 10 mM glutamate-malate, and state 3 respiration was evaluated after addition of 100 μM ADP. Maximal respiration was determined with 0.08 μM of carbonyl cyanide m-chlorophenyl hydrazine (CCCP). The mitochondrial membrane potential was measured by fluorometry using 5 μM safranine. Mitochondrial Ca^2+ uptake was determined with the metalochromic indicator, Arsenazo III, or calcium green 5N (5N-CG), using a medium containing 50 μM Arsenazo or 10 μM 5N-CG, 10 mM succinate plus rotenone (0.1 μg·ml^−1), 200 μM ADP, and 0.25 μg oligomycin A. Pulses of 10 nmol Ca^+2 were added every 3 minutes to reach a Ca^+2 release due to MPT opening. […]

[3] = system: aconitase; experiment: Mitochondrial aconitase activity in heart homogenates; conditions: ex vivo heart, Cas at IC50, Doxo 5 μM
Procedure: (§1) To measure the energetic metabolites ATP, phosphocreatine (PCr), and aconitase activity at the end of the perfusion protocols, samples were prepared as follows: the hearts were removed from the perfusion system by cutting the aorta and immediately flash-frozen with liquid N2, weighed, and stored at −80°C. Afterward, the hearts were homogenized in ice-cold buffer containing 250 mM sucrose, 10 mM HEPES, and 1 mM EDTA (pH 7.4). For enzymatic determination, aliquots of the homogenate were immediately frozen in liquid nitrogen and stored at −80°C. Quantification of ATP and PCr was carried out in a HPLC system with a dual-pump gradient (Waters Chromatography, Toronto, Canada) as previously described.

[4] = system: isolated rat hearts; experiment: Langendorff-perfused isolated rat heart: mechanical performance (RPP, HR, ±dP/dt, cardiac efficiency)
Procedure: (§2) Male Wistar rats (250–300 g) were injected with heparin (10^3 U·kg^−1, i.p.) 20 minutes prior to anesthesia with pentobarbital (100 mg·kg^−1, i.p.). When bilateral corneal reflex was absent, the heart was excised through an abdominal approach. Then, the ascending aorta was visualized and cut and the heart was placed in a cardioplegic solution. To avoid ischemia, the time between cutting the diaphragm to placing the heart in the solution was less than 60 seconds. The hearts were mounted in accordance with the Langendorff model and perfused at a constant flow (12 ml·min^−1) with a Krebs-Henseleit buffer as previously described. A latex balloon connected to a pressure transducer filled with saline solution was inserted into the left ventricle after establishing autonomous contraction. The pulmonary artery was cannulated and connected to a closed chamber using a Clark-type oxygen electrode (Yellow Springs Instruments, Yellow Springs, Ohio) to measure myocardial oxygen consumption (MVO2) in the coronary effluent. The rate of MVO2 was calculated as the difference between the concentration in the K-H buffer before (100%) and after perfusion. Data Trax software (WPI, Sarasota, Florida) was used for continuous recording of the heart rate (HR), left ventricular pressure (LVP), MVO2, and maximum positive and negative derivative of left ventricular pressure (±dP/dt). The baseline was established during 10–15 minutes of K-H perfusion. Each concentration of Cas or Doxo remained in the heart for 30 min. Hearts in the control group were perfused with K-H buffer during the whole experimental time. Rate pressure product (RPP = HR × LVP) and cardiac efficiency ([…]) were calculated as previously reported.

[5] = system: mitochondria isolated from Cas-treated hearts; experiment: Respiratory activity of mitochondria isolated from treated hearts (Clark-type oxygen electrode); parameters: species or system rat
Procedure: (§3) To measure mitochondrial oxygen consumption, mitochondrial membrane potential, and Ca^2+ uptake, cytochrome c samples were prepared as follows: after perfusion, heart tissue from the left ventricle was minced and homogenized in cold mitochondrial isolation medium (in mM: 125 KCl, 1 EDTA, and 10 HEPES-HCl; pH 7.3). The mitochondrial fraction was obtained by differential centrifugation using the protease Nagarse, as previously described. Mitochondrial oxygen consumption was measured using a Clark-type oxygen electrode. The experiments were carried out in respiration assay medium containing 125 KCl, 10 HEPES-HCl, and 3 KH2PO4 (in mM) with pH 7.3. State 4 respiration was measured in the presence of 10 mM glutamate-malate, and state 3 respiration was evaluated after addition of 100 μM ADP. Maximal respiration was determined with 0.08 μM of carbonyl cyanide m-chlorophenyl hydrazine (CCCP). The mitochondrial membrane potential was measured by fluorometry using 5 μM safranine. Mitochondrial Ca^2+ uptake was determined with the metalochromic indicator, Arsenazo III, or calcium green 5N (5N-CG), using a medium containing 50 μM Arsenazo or 10 μM 5N-CG, 10 mM succinate plus rotenone (0.1 μg·ml^−1), 200 μM ADP, and 0.25 μg oligomycin A. Pulses of 10 nmol Ca^+2 were added every 3 minutes to reach a Ca^+2 release due to MPT opening. Mitochondrial cytochrome c quantification from Cas-treated hearts was performed using Western blot analysis as described previously. The blots were developed with Luminata crescendo substrate (Merck Millipore, Darmstadt, Germany) and detected with VisionWorks LS-UVP Chimio System (BioSpectrum 415 Imaging System, Cambridge, UK).

[6] = system: mitochondrial permeability transition pore; experiment: Mitochondrial Ca2+ retention capacity (MPT opening); parameters: species or system rat; conditions: mitochondria from treated hearts, CsA 0.5 μM added in vitro
Procedure: as §3

[7] = system: α-ketoglutarate dehydrogenase; parameters: method as in PMID 26739598; conditions: cited from earlier work
[8] = system: caspases 3 and 7; experiment: Caspase-Glo 3/7 activity in cell lysates; type: cell-based, rat; conditions: cardiomyocytes treated at IC50, compared to Doxo or the control
Description: Ventricular cardiomyocytes were obtained from male Wistar rats (250–300 g) by digestion with collagenase type II as previously described. Cells were washed in Tyrode solution (mM): 130 NaCl, 5.4 KCl, 0.4 NaH2PO4, 0.5 MgCl2, 25 HEPES, and 5 glucose with pH 7.4. After isolation, cells were cultivated at a density of 3.2 × 10^3 viable cells/well in 96-well plates pretreated with laminin in M-199 medium supplemented in mM with 5 taurine, 5 creatine, 2 L-carnitine, 2.5 sodium pyruvate, and penicillin-streptomycin at 100 U·ml^−1 and 100 μg·ml^−1, respectively, at 37°C, with 5% CO2 and 95% air. After incubation for three hours, varying concentrations of Cas were tested in triplicate, exposing the myocytes during 24 hours to each treatment. At the end of the incubation period, the cytotoxicity of Cas was measured using the Alamar Blue viability test (Life Technologies, Carlsbad, CA, USA). Release of cytoplasmic lactate dehydrogenase (LDH) was determined using CytoTox-ONE homogeneous membrane integrity kit (Promega Madison, WI, USA). The activity of caspases 3/7 and caspase 9 was measured in cell lysates using caspase-Glo 3/7 and caspase-Glo 9 test luminescent assay (Promega, Madison, WI, USA), respectively. The cardiomyoblast cell line H9c2 (ATCC CRL-1446) was maintained using standard procedures in DMEM supplemented with 10% fetal bovine serum prior to the oxidative stress experiments.

[9] = system: isolated rat hearts; experiment: Myocardial oxygen consumption and energetic metabolites (ATP, PCr) in perfused hearts; conditions: Cas at IC50, Doxo 5 μM
Procedure: as §2, §1

CC(=O)C=C(C)[O-].Cc1ccnc(-c2cc(C)ccn2)c1.O.O.O=[N+]([O-])[O-].[Cu+2] [Cas III-ia, Aqua(4,4-dimethyl-2,2′bipyridine)(acetylacetonate)copper(II)nitrate]
reduction of the volume of subcutaneous tumors [1]: 81% | mitochondrial cytochrome c content [2]: reduction of cytochrome c | aconitase activity [3]: decreased | +dP/dt × 1000 (contraction rate) ([4]; hearts treated at the IC50): 2.4 ± 0.20^∗ mmHg·s^−1 | −dP/dt × 1000 (relaxation rate) ([4]; hearts treated at the IC50): −1.0 ± 0.16^∗ mmHg·s^−1 | t 0.5, time for half-inhibition of RPP ([4]; isolated rat heart, 5 μM): 49 ± 0.8^a,b,c min | heart rate (HR) reduction ([4]; perfused at 5 μM): not affected | IC50 ([4]; read-out: IC50, half-maximal inhibitory concentration for RPP (heart contractile function), isolated rat heart, at 30 min perfusion): 10 ± 0.7 µM | Max. respiration ([5]; 0.08 μM CCCP): 12.3 ± 2.6^∗ nmol O min^−1·mg^−1 | State 4 respiration ([5]; 10 mM glutamate-malate): 15.6 ± 2.6 nmol O min^−1·mg^−1 | Respiratory control ([5]; malate/glutamate): 1.3 ± 0.1^∗ | State 3 respiration ([5]; malate/glutamate, after 100 μM ADP): 18.5 ± 0.6^∗ nmol O min^−1·mg^−1 | decrease in state 3 respiration rate ([5]; versus control): 78% | reduction in maximal respiration ([5]; versus control): 87% | protective effect of CsA on Ca2+ retention capacity [6]: 28% | α-ketoglutarate dehydrogenase activity compared with III-Ea [7]: twofold decrease | increase in activity of caspases 3 and 7 [8]: ~ 4 fold | PCr levels [9]: decreased | change in MVO2 [9]: no changes | decrease in ATP content [9]: 37%
